Target: T1, α5β3γ2 receptor (Homo sapiens, UniProt P18507+P31644)
T1 construct: expressed in transfected cells; host or cells: HEK-293 (stably transfected)
Assay: Supplementary data for cell level screening: new electrophysiology method (I. Lecker et al)
Assay type: cell-based
Conditions: for Inverse agonism efficacy(%): new method, CsCl intracellular solution, GABA 0.1˜0.3 CM, other procedures as previous method; for inverse agonism efficacy of the compound/α5IA inverse agonism efficacy: ratio to the α5IA reference run above in the table (r4 or r29)

T1 sequence (P31644 32-462): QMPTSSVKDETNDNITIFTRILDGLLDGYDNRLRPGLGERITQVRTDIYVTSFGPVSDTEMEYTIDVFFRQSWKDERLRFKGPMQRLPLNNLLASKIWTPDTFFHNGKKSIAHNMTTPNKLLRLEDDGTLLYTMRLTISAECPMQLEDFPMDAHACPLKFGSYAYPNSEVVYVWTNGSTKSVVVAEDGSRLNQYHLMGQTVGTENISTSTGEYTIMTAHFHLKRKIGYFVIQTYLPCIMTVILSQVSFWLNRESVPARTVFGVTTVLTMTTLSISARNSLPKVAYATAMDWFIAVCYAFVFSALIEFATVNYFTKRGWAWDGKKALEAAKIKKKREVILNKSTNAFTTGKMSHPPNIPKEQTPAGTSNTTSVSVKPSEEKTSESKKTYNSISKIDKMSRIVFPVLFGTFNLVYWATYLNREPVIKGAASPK
T1 sequence (P28472 26-473 isoform P28472-2 partner limits assumed): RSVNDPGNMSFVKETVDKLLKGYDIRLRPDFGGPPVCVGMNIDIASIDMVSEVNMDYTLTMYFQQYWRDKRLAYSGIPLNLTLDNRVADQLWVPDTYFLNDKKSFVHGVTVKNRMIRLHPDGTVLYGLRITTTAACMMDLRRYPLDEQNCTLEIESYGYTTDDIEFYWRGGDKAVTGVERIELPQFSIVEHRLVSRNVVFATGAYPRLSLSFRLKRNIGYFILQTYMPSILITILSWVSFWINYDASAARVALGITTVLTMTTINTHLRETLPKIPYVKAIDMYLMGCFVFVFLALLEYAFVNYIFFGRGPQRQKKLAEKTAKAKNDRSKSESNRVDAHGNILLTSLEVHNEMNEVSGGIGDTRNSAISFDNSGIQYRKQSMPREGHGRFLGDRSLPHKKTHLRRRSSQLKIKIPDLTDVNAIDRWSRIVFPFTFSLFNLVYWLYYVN
T1 sequence (P18507 40-475): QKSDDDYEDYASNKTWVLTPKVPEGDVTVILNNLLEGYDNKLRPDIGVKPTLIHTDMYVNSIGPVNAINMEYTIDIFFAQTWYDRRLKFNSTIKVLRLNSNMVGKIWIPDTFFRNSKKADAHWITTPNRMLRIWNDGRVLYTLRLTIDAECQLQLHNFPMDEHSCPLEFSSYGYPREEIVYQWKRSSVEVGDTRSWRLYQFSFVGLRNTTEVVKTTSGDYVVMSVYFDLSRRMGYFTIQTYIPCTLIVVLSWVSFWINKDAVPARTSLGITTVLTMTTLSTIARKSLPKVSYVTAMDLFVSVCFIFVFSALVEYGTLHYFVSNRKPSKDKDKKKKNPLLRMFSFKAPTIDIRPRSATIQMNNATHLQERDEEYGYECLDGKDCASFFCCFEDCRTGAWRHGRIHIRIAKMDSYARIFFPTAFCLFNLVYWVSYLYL

Row | Inverse agonism efficacy(%) | inverse agonism efficacy of the compound/α5IA inverse agonism efficacy | SMILES
1 | −35.375% | 1.902 | COCCNC(=O)c1ccc(COc2nn3c(-c4cc(C)on4)nnc3c3ccccc23)nc1 [Compound 08, N-(2-methoxyethyl)-6-(((3-(5-methylisoxazol-3-yl)-[1,2,4]triazolo[3,4-a]phthalazin-6-yl)oxy)methyl)nicotinamide]
2 | −21.1667% | 1.219 | CCNC(=O)c1ccc(COc2nn3c(-c4cc(C)on4)nnc3c3ccccc23)nc1 [Compound 07, N-ethyl-6-(((3-(5-methylisoxazol-3-yl)-[1,2,4]triazolo[3,4-a]phthalazin-6-yl)oxy)methyl)nicotinamide]
